Assay results reported in ChEMBL document CHEMBL4304775, “Identification and characterization of a novel chemotype for human TLR8 inhibitors” (Eur J Med Chem, 2019).
Activity calls are given as the source filed them. The rule behind the calls is not given here.

Experiments:
Type in all cases: cell-based
Toll-like receptor 8 = target: T1, Toll-like receptor 8 (Homo sapiens, UniProt Q9NR97); experiment: Antagonist activity at human TLR8 expressed in HEK-Blue cells assessed as inhibition of CL075-induced NF-kappaB activation incubated for 1 hr followed by CL075-stimulation and measured after 24 hrs by quanti-blue SEAP assay
T1 sequence (Q9NR97 whole entry): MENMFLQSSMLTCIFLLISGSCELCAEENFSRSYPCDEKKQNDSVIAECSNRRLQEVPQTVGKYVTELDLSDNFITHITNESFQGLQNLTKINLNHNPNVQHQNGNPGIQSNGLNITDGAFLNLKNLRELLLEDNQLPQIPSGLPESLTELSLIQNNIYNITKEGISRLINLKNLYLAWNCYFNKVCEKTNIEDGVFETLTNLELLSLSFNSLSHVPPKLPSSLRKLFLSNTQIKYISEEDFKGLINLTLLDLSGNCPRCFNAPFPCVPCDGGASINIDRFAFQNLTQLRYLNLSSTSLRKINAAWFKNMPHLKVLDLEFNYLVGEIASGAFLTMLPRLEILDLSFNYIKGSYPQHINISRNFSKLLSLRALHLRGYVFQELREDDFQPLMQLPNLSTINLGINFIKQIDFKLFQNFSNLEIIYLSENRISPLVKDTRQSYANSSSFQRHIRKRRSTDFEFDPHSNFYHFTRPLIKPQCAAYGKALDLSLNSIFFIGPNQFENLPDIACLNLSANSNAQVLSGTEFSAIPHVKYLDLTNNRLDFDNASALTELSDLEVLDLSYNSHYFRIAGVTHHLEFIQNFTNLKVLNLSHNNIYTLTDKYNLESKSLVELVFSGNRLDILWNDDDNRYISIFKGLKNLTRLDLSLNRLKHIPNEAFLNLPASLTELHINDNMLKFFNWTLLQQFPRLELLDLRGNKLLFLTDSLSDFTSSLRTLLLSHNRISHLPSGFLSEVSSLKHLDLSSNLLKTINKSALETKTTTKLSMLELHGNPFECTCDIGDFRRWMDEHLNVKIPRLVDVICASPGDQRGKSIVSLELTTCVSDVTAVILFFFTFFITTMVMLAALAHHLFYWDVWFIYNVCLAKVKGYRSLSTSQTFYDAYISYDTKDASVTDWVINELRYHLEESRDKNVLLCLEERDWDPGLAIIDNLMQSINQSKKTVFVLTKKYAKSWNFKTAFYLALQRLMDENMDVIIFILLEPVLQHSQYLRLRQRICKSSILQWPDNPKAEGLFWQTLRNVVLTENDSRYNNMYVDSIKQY

[1] = target: Toll-like receptor 3 (Homo sapiens) (UniProt O15455); experiment: […] at TLR3 in human THP1 cells assessed as inhibition of poly(I:C)-induced IL-8 secretion preincubated for 1 hr followed by poly(I:C)-stimulation and measured after 24 hrs by ELISA
Chain of Toll-like receptor 3 (Homo sapiens) (O15455 whole entry): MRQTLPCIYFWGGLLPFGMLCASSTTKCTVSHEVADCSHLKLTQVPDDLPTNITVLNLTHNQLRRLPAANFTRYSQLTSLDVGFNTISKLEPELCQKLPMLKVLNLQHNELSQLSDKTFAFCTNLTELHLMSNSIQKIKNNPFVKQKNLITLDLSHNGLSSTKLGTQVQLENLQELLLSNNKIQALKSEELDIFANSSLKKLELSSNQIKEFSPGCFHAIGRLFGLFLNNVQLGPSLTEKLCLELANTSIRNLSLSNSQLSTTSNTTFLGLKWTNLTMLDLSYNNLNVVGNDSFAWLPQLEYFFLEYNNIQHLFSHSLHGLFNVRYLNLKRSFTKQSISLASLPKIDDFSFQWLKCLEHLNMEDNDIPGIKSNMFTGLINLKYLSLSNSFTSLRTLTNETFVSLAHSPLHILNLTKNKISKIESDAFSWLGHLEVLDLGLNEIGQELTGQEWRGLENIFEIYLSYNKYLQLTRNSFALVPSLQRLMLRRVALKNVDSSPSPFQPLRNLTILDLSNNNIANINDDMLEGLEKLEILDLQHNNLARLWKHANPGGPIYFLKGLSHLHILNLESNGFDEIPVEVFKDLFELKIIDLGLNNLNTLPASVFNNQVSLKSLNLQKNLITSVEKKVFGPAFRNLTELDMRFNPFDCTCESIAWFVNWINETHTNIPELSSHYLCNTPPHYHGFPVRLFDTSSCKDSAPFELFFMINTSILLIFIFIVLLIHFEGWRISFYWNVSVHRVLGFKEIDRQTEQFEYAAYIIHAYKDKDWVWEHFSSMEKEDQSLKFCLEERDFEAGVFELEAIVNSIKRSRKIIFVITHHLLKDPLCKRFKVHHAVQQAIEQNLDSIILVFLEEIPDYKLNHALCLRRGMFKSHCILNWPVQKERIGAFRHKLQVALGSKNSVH

[2] = target: T2, Toll-like receptor 9 (Homo sapiens) (UniProt Q9NR96); experiment: […] at TLR9 in human THP1 cells assessed as inhibition of ODN2006-induced IL-8 secretion preincubated for 1 hr followed by ODN2006-stimulation and measured after 24 hrs by ELISA
T2 sequence (whole entry): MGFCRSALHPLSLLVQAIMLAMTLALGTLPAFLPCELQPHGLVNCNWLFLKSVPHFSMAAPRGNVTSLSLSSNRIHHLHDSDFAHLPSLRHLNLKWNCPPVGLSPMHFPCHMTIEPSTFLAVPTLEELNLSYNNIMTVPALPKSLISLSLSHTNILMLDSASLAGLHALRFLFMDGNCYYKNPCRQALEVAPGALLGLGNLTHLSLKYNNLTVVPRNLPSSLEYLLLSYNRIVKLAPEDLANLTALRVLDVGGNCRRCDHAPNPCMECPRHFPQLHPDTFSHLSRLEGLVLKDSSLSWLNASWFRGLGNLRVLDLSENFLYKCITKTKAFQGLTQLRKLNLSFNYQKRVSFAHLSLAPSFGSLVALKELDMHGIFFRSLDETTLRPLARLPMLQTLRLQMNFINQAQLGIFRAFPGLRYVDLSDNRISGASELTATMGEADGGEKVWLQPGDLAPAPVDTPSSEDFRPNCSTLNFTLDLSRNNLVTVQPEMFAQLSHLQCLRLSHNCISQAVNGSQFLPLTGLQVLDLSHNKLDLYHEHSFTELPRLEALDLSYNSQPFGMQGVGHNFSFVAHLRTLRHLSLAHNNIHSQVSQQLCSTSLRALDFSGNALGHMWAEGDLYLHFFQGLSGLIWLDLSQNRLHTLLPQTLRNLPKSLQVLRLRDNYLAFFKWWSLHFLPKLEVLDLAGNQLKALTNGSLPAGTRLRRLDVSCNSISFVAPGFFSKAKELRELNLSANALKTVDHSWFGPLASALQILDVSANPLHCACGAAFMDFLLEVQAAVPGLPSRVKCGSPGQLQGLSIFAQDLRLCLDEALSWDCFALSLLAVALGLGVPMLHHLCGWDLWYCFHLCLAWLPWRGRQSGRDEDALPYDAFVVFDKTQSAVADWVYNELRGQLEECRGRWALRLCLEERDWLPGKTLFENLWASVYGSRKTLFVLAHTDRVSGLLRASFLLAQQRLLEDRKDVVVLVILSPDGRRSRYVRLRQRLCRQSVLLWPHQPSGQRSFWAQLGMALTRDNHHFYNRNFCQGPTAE

[3] = target: T3, Toll-like receptor 8 (Homo sapiens) (UniProt Q9NR97); experiment: Activation of human TLR8 expressed in HEK-Blue cells assessed as increase in NF-kappaB activation at 5 to 25 uM incubated for 24 hrs by quanti-blue SEAP assay
T3 sequence (whole entry): T1 sequence (Q9NR97 whole entry)

[4] = target: T3, Toll-like receptor 8 (Homo sapiens); experiment: Antagonist activity at human TLR8 expressed in HEK-Blue cells assessed as reduction in CL075-induced NF-kappaB activation at 25 uM incubated for 1 hr followed by CL075-stimulation and measured after 24 hrs by quanti-blue SEAP assay relative to control
[5] = target: Toll-like receptor 5 (Homo sapiens) (UniProt O60602); experiment: […] at TLR5 in human THP1 cells assessed as inhibition of flagellin-induced IL-8 secretion preincubated for 1 hr followed by flagellin stimulation and measured after 24 hrs by ELISA
Chain of Toll-like receptor 5 (Homo sapiens) (O60602 whole entry): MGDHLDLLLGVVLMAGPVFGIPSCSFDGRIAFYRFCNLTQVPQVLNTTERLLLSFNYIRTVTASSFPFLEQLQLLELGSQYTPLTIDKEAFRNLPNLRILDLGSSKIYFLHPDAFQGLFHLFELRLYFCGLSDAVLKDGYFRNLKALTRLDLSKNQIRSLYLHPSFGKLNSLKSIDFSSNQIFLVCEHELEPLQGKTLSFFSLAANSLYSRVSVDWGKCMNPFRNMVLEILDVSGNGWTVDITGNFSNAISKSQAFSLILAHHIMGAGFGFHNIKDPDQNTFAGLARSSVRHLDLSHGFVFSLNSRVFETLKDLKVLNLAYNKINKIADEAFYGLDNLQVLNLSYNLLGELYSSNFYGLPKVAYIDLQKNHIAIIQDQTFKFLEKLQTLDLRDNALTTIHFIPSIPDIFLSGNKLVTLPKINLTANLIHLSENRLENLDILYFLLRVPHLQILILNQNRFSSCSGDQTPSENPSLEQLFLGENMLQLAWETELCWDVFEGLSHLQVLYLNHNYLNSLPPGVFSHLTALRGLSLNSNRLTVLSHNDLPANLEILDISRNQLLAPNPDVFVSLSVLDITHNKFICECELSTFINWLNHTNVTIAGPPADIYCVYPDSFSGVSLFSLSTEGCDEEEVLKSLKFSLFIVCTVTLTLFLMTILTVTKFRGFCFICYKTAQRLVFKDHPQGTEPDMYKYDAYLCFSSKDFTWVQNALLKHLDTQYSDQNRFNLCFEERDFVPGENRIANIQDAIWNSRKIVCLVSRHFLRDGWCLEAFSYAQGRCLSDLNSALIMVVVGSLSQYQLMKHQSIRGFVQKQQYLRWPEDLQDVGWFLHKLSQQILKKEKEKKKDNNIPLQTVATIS

[6] = target: T3, Toll-like receptor 8 (Homo sapiens); experiment: Antagonist activity at human TLR8 expressed in HEK-Blue cells assessed as reduction in CL075-induced NF-kappaB activation at 10 to 25 uM incubated for 1 hr followed by CL075-stimulation and measured after 24 hrs by quanti-blue SEAP assay relative to control
[7] = target: Toll-like receptor 2 (Homo sapiens) (UniProt O60603); experiment: Antagonist activity at TLR2 in human THP1 cells assessed as inhibition of Pam2CSK4/Pam3CSK4-induced IL-8 secretion preincubated for 1 hr followed by Pam2CSK4/Pam3CSK4 stimulation and measured after 24 hrs by ELISA
Chain of Toll-like receptor 2 (Homo sapiens) (O60603 whole entry): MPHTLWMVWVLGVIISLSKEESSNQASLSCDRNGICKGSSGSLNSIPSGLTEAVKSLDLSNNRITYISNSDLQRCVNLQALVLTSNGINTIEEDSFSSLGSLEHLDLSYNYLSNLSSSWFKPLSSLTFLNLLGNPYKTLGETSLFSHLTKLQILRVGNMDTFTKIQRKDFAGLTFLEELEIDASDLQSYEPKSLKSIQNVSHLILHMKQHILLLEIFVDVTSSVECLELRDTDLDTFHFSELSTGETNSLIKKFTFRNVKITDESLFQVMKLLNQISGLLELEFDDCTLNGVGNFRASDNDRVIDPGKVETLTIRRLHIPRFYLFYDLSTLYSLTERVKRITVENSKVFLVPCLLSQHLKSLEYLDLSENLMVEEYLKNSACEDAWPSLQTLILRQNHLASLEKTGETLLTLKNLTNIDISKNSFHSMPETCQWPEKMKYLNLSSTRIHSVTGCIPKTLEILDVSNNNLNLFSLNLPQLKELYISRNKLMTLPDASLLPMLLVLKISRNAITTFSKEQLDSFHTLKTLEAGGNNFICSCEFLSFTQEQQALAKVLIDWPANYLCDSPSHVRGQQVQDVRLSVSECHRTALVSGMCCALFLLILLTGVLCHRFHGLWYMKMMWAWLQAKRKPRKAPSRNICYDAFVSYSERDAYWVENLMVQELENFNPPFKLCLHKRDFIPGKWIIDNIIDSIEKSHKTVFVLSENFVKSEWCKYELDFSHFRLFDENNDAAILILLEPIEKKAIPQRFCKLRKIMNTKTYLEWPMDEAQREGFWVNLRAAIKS

[8] = target: T3, Toll-like receptor 8 (Homo sapiens); experiment: Antagonist activity at human TLR8 expressed in HEK-Blue cells assessed as reduction in CL075-induced NF-kappaB activation at 10 uM incubated for 1 hr followed by CL075-stimulation and measured after 24 hrs by quanti-blue SEAP assay

Row | Structure (SMILES) | IC50 (Toll-like receptor 8) [µM] | inhibition [1] | inhibition [2] | Activity [3] | inhibition [4] [%] | inhibition [5] | inhibition [6] [%] | inhibition [7] | inhibition [8]
1 | CCCCNc1nc(-c2cccs2)cc(C(F)(F)F)n1 | 35.5 | inactive | inactive | inactive | < 50 | inactive | 100 | inactive | Active
2 | FC(F)(F)c1cc(-c2ccco2)nc(NCc2cccs2)n1 | 9.2 | inactive | inactive | inactive | < 50 | inactive | 50 | inactive | Active
3 | FC(F)(F)c1cc(-c2ccccc2)nc(NCc2cccs2)n1 | 20 | inactive | inactive | inactive | < 50 | inactive | 100 | inactive | Active
